How the values were obtained:
[1] = test system: HTC-C3 (Thyroid Gland Carcinoma); test: Bliss excess, mean over the matrix (fraction); higher = more synergy
Outline: (§1)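 Cell lines in DMEM/F12 or RPMI with 10% FBS were plated in 1536-well plates, held 24 hours at 37°C, 5% CO2, then given two-drug dose matrices for 72 hours (DMSO typically 0.2%). Viability was read by CellTiter-Glo 2.0 luminescence and scaled as inhibition from 0 (vehicle wells) to 1 (blank wells). Combination Emax is the second-highest inhibition in the matrix; Bliss excess is observed combination effect minus expected EA + EB − EA·EB, EA and EB being single-agent effects.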

[2] = test system: RT4 (Bladder Carcinoma); test: as above
Outline: as §1

[3] = test system: AN3-CA (Endometrial Carcinoma); test: combination Emax (second highest fraction inhibited in the dose matrix, 72 h); higher = more inhibition; extreme values may be limits of the assay
Outline: as §1

[4] = test system: BALL-1 (B-Lymphoblastic Leukemia); test: as above
Outline: as §1

[5] = test system: Becker (Low Grade Glioma); test: as above
Outline: as §1

[6] = test system: CHL-1 (Melanoma); test: as above
Outline: as §1

[7] = test system: CML-T1 (Chronic Myelogenous Leukemia); test: as above
Outline: as §1

[8] = test system: Calu-6 (Non-Small Cell Lung Carcinoma); test: as above
Outline: as §1

[9] = test system: HTC-C3 (Thyroid Gland Carcinoma); test: as above
Outline: as §1

[10] = test system: JHH-1 (Hepatocellular Carcinoma); test: as above
Outline: as §1

[11] = test system: LAMA-84 (Chronic Myelogenous Leukemia); test: as above
Outline: as §1

[12] = test system: LOUCY (T-Lymphoblastic Leukemia); test: as above
Outline: as §1

[13] = test system: NCI-H1155 (Non-Small Cell Lung Carcinoma); test: as above
Outline: as §1

[14] = test system: NCI-H1755 (Lung Adenocarcinoma); test: as above
Outline: as §1

[15] = test system: NCI-H196 (Small Cell Lung Carcinoma); test: as above
Outline: as §1

[16] = test system: OCI-AML5 (Acute Myeloid Leukemia); test: as above
Outline: as §1

[17] = test system: OV-90 (Ovarian Carcinoma); test: as above
Outline: as §1

[18] = test system: PC-14 (Lung Adenocarcinoma); test: as above
Outline: as §1

[19] = test system: RL95-2 (Endometrial Carcinoma); test: as above
Outline: as §1

[20] = test system: RT4 (Bladder Carcinoma); test: as above
Outline: as §1
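For Bliss excess, mean over the matrix in this document: after 72 h of two-drug dosing.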

Row | SMILES | Bliss excess [1] | Bliss excess [2] | combination Emax [3] | combination Emax [4] | combination Emax [5] | combination Emax [6] | combination Emax [7] | combination Emax [8] | combination Emax [9] | combination Emax [10] | combination Emax [11] | combination Emax [12] | combination Emax [13] | combination Emax [14] | combination Emax [15] | combination Emax [16] | combination Emax [17] | combination Emax [18] | combination Emax [19] | combination Emax [20]
1 | CC1(C)CCC(CN2CCN(c3ccc(C(=O)NS(=O)(=O)c4ccc(NCC5CCOCC5)c([N+](=O)[O-])c4)c(Oc4cnc5[nH]ccc5c4)c3)CC2)=C(c2ccc(Cl)cc2)C1 [Venetoclax] + C[C@@H]1COCCN1C2=NC(=NC(=C2)C3(CC3)[S@](=N)(=O)C)C4=C5C=CNC5=NC=C4 [AZD6738] (first compound max 1 µM, 7x7, partner max 10 µM) | -0.0354 | -0.0281 | 0.653 | 1 | 0.656 | 0.879 | 0.993 | 0.801 | 0.674 | 0.609 | 0.975 | 1 | 0.829 | 0.828 | 0.376 | 1 | 0.533 | 0.845 | 0.691 | 0.612
2 | CC1(C)CCC(CN2CCN(c3ccc(C(=O)NS(=O)(=O)c4ccc(NCC5CCOCC5)c([N+](=O)[O-])c4)c(Oc4cnc5[nH]ccc5c4)c3)CC2)=C(c2ccc(Cl)cc2)C1 [Venetoclax] + C[C@@H](Nc1cc(F)cc(F)c1)c1cc(C(=O)N(C)C)cc2c(=O)cc(N3CCOCC3)oc12 [AZD8186] (first compound max 1 µM, 7x7, partner max 3 µM) | -0.0236 | -0.0208 | 0.457 | 1 | 0.418 | 0.147 | 0.967 | 0.125 | 0.149 | 0.172 | 0.313 | 1 | 0.422 | 0.588 | 0.218 | 1 | 0.164 | 0.175 | 0.106 | 0.174
3 | CC1(C)CCC(CN2CCN(c3ccc(C(=O)NS(=O)(=O)c4ccc(NCC5CCOCC5)c([N+](=O)[O-])c4)c(Oc4cnc5[nH]ccc5c4)c3)CC2)=C(c2ccc(Cl)cc2)C1 [Venetoclax] + Cc1cc2ncnn2cc1Nc1ncc2c(n1)n(C1CCOCC1)c(=O)n2C [AZD7648] (first compound max 1 µM, 7x7, partner max 10 µM) | -0.0197 | -0.0115 | 0.411 | 1 | 0.19 | 0.215 | 0.93 | 0.275 | 0.205 | 0.199 | 0.299 | 1 | 0.164 | 0.534 | 0.121 | 0.943 | 0.298 | 0.293 | 0.194 | 0.357
4 | CC1(C)CCC(CN2CCN(c3ccc(C(=O)NS(=O)(=O)c4ccc(NCC5CCOCC5)c([N+](=O)[O-])c4)c(Oc4cnc5[nH]ccc5c4)c3)CC2)=C(c2ccc(Cl)cc2)C1 [Venetoclax] + Cn1cnc2c(F)c(Nc3ccc(Br)cc3Cl)c(C(=O)NOCCO)cc21 [Selumetinib] (first compound max 1 µM, 7x7, partner max 3 µM) | -0.049 | -0.0521 | 0.204 | 1 | 0.215 | 0.0922 | 0.957 | 0.431 | 0.508 | 0.272 | 0.707 | 1 | 0.371 | 0.636 | 0.077 | 1 | 0.571 | 0.22 | 0.332 | 0.304

— the supplement of paper PMC11061612
